Measured values: PMC3991719 (PLoS ONE, 2014)

Columns and labels:
S. aureus MN8 = assay type: cell-based, Staphylococcus aureus
[1] = system: TSST-1 production by S. aureus MN8; assay type: cell-based, Staphylococcus aureus
L. crispatus = L. crispatus growth and culture pH, 9 h assay; assay type: cell-based, Lactobacillus crispatus; settings: data not shown; for Alteration of L. crispatus media pH compared to untreated controls: broth cultures, pH meter; for Effect on L. crispatus growth (CFUs/ml): human normal vaginal isolate, 9 h assay, plate counts on Todd Hewitt agar
Protocol: Cultures of a human normal vaginal isolate of L. crispatus were subjected to the same 9 hour assay as used to determine peptide antimicrobial effects on S. aureus. CFUs/ml were determined by dilution plate counts on Todd Hewitt agar (BD). The pHs of overnight broth cultures were also determined with use of a standard pH meter.

[2] = system: TSST-1 production by S. aureus MNPE; assay type: cell-based, Staphylococcus aureus
[3] = system: α-toxin production by S. aureus MNPE; assay type: cell-based, Staphylococcus aureus
S. aureus MNPE = assay type: cell-based, Staphylococcus aureus
[4] = system: IL-8 production by HVECs exposed to S. aureus MN8; assay type: cell-based, human
[5] = system: human vaginal epithelial cells (HVECs)

Substance | Antimicrobial activity against S. aureus (S. aureus MN8) | Reduction of S. aureus growth (S. aureus MN8) [log] | Lowest dose giving complete inhibition of TSST-1 production [1] [µg/mL] | Effect on S. aureus MN8 growth (CFUs/ml) (S. aureus MN8) | TSST-1 inhibition activity (in words) [1] | Alteration of L. crispatus media pH compared to untreated controls (L. crispatus) | Effect on L. crispatus growth (CFUs/ml) (L. crispatus) | TSST-1 inhibition activity (in words) [2] | Inhibition of α-toxin production (in words) [3] | Effect on S. aureus MNPE growth (S. aureus MNPE) | Concentration at which inhibition of α-toxin production was shown [3] [µg/mL] | IL-8 production by HVECs incubated with MN8 and peptide [4] [pg/mL] | Cytotoxicity to HVECs [5]
HNP-1: human defensin peptide purchased from Sigma-Aldrich | no antimicrobial activity was observed | 1 | 0.005 |  |  |  |  |  |  |  |  |  | 
HNP-2: human defensin peptide purchased from Sigma-Aldrich (CYCRIPACIAGERRYGTCIYQGRLWAFCC) | no antimicrobial activity was observed | 1 | 0.005 |  |  |  |  |  |  |  |  |  | 
Hbg-2: Hbg-1 peptide with scrambled sequence (STKPFFYFLHTQVKASPTSHDG) |  |  |  | not antimicrobial at any concentration tested | comparably active as Hbg-1 | nor was alteration in media pH observed | No inhibition of growth |  |  |  |  |  | 
SP-1: hemoglobin-like synthetic peptide, 0% positively-charged amino acids (SFPTTATYFPAFDLSAGSAQVA) |  |  |  | lacked antimicrobial | lacked antimicrobial (data not shown) and TSST-1 inhibition activity | nor was alteration in media pH observed | No inhibition of growth | lacked antimicrobial (data not shown) and TSST-1 inhibition activity | no inhibition of α-toxin production | lacked antimicrobial |  |  | 
SP-2: hemoglobin-like synthetic peptide, 50% positively-charged amino acids (SKPKKKTYKPHKDLSHGSAKKK) |  |  |  | without affecting bacterial growth | showed the greatest TSST-1 inhibition activity | nor was alteration in media pH observed | No inhibition of growth | showed the greatest TSST-1 inhibition activity |  | without affecting bacterial growth | 0.005 | 3.6 ± 7.2 | not cytotoxic
